Experiment: mn = molality of the nth substance listed, in mol/kg
Details: Liquid; for thermal conductivity: Coaxial cylinder method; for viscosity: Capillary tube (Ostwald / Ubbelohde) method

O=S(=O)([O-])[O-].[K+].[K+] [potassium sulfate] + O
Details	thermal conductivity [W/m/K]	viscosity [mPa·s]
298 K, 100 kPa, m1 = 0.499	0.602	–
298 K, 10000 kPa, m1 = 0.499	0.607	–
298 K, 30000 kPa, m1 = 0.499	0.616	–
298.15 K, 0.1 kPa, m1 = 0.0658	–	0.9039
298.15 K, 0.1 kPa, m1 = 0.2055	–	0.931
298.15 K, 0.1 kPa, m1 = 0.305	–	0.9616
298.15 K, 0.1 kPa, m1 = 0.407	–	0.9825
298.15 K, 10 kPa, m1 = 0.0658	–	0.9023
298.15 K, 10 kPa, m1 = 0.2055	–	0.9297
298.15 K, 10 kPa, m1 = 0.305	–	0.9618
298.15 K, 10 kPa, m1 = 0.407	–	0.9823
298.15 K, 20 kPa, m1 = 0.0658	–	0.904
298.15 K, 20 kPa, m1 = 0.2055	–	0.931
298.15 K, 20 kPa, m1 = 0.305	–	0.9615
298.15 K, 20 kPa, m1 = 0.407	–	0.9826
298.15 K, 30 kPa, m1 = 0.0658	–	0.9053
298.15 K, 30 kPa, m1 = 0.2055	–	0.9319
298.15 K, 30 kPa, m1 = 0.305	–	0.964
298.15 K, 30 kPa, m1 = 0.407	–	0.983
298.4 K, 100 kPa, m1 = 0.239	0.605	–
298.4 K, 10000 kPa, m1 = 0.239	0.61	–
298.4 K, 30000 kPa, m1 = 0.239	0.62	–
311.65 K, 0.1 kPa, m1 = 0.2055	–	0.7107
311.65 K, 10 kPa, m1 = 0.2055	–	0.7122
311.65 K, 20 kPa, m1 = 0.2055	–	0.7133
311.65 K, 30 kPa, m1 = 0.2055	–	0.7151
312.25 K, 0.1 kPa, m1 = 0.407	–	0.7386
312.25 K, 10 kPa, m1 = 0.407	–	0.7414
312.25 K, 20 kPa, m1 = 0.407	–	0.7439
312.25 K, 30 kPa, m1 = 0.407	–	0.7452
312.55 K, 0.1 kPa, m1 = 0.305	–	0.7172
312.55 K, 10 kPa, m1 = 0.305	–	0.7194
312.55 K, 20 kPa, m1 = 0.305	–	0.7207
312.55 K, 30 kPa, m1 = 0.305	–	0.7227
313 K, 100 kPa, m1 = 0.239	0.626	–
313 K, 10000 kPa, m1 = 0.239	0.631	–
313 K, 30000 kPa, m1 = 0.239	0.641	–
313.1 K, 100 kPa, m1 = 0.782	0.618	–
313.1 K, 10000 kPa, m1 = 0.782	0.623	–
313.1 K, 30000 kPa, m1 = 0.782	0.632	–
313.55 K, 0.1 kPa, m1 = 0.0658	–	0.6609
313.55 K, 10 kPa, m1 = 0.0658	–	0.6613
313.55 K, 20 kPa, m1 = 0.0658	–	0.665
313.55 K, 30 kPa, m1 = 0.0658	–	0.667
313.6 K, 100 kPa, m1 = 0.499	0.622	–
313.6 K, 10000 kPa, m1 = 0.499	0.627	–
313.6 K, 30000 kPa, m1 = 0.499	0.637	–
323.15 K, 0.1 kPa, m1 = 0.2055	–	0.5819
323.15 K, 0.1 kPa, m1 = 0.305	–	0.5972
323.15 K, 10 kPa, m1 = 0.2055	–	0.5837
323.15 K, 10 kPa, m1 = 0.305	–	0.5991
323.15 K, 20 kPa, m1 = 0.2055	–	0.5858
323.15 K, 20 kPa, m1 = 0.305	–	0.6019
323.15 K, 30 kPa, m1 = 0.2055	–	0.5885
323.15 K, 30 kPa, m1 = 0.305	–	0.6045
323.25 K, 0.1 kPa, m1 = 0.0658	–	0.5568
323.25 K, 10 kPa, m1 = 0.0658	–	0.5586
323.25 K, 20 kPa, m1 = 0.0658	–	0.5601
323.25 K, 30 kPa, m1 = 0.0658	–	0.5617
323.35 K, 0.1 kPa, m1 = 0.407	–	0.6109
323.35 K, 10 kPa, m1 = 0.407	–	0.613
323.35 K, 20 kPa, m1 = 0.407	–	0.6159
323.35 K, 30 kPa, m1 = 0.407	–	0.618
333.3 K, 100 kPa, m1 = 0.782	0.64	–
333.3 K, 10000 kPa, m1 = 0.782	0.645	–
333.3 K, 30000 kPa, m1 = 0.782	0.655	–
333.6 K, 100 kPa, m1 = 0.239	0.649	–
333.6 K, 10000 kPa, m1 = 0.239	0.654	–
333.6 K, 30000 kPa, m1 = 0.239	0.664	–
333.7 K, 100 kPa, m1 = 0.499	0.645	–
333.7 K, 10000 kPa, m1 = 0.499	0.65	–
333.7 K, 30000 kPa, m1 = 0.499	0.66	–
348.15 K, 0.1 kPa, m1 = 0.407	–	0.4271
348.15 K, 10 kPa, m1 = 0.407	–	0.4316
348.15 K, 20 kPa, m1 = 0.407	–	0.4354
348.15 K, 30 kPa, m1 = 0.407	–	0.438
348.25 K, 0.1 kPa, m1 = 0.305	–	0.4147
348.25 K, 10 kPa, m1 = 0.305	–	0.4182
348.25 K, 20 kPa, m1 = 0.305	–	0.4217
348.25 K, 30 kPa, m1 = 0.305	–	0.4248
348.45 K, 0.1 kPa, m1 = 0.0658	–	0.3842
348.45 K, 10 kPa, m1 = 0.0658	–	0.3869
348.45 K, 20 kPa, m1 = 0.0658	–	0.3912
348.45 K, 30 kPa, m1 = 0.0658	–	0.3963
348.95 K, 0.1 kPa, m1 = 0.2055	–	0.3988
348.95 K, 10 kPa, m1 = 0.2055	–	0.402
348.95 K, 20 kPa, m1 = 0.2055	–	0.4048
348.95 K, 30 kPa, m1 = 0.2055	–	0.4076
352.9 K, 100 kPa, m1 = 0.499	0.66	–
352.9 K, 100 kPa, m1 = 0.782	0.654	–
352.9 K, 10000 kPa, m1 = 0.499	0.665	–
352.9 K, 10000 kPa, m1 = 0.782	0.659	–
352.9 K, 30000 kPa, m1 = 0.499	0.675	–
352.9 K, 30000 kPa, m1 = 0.782	0.67	–
353.3 K, 100 kPa, m1 = 0.239	0.665	–
353.3 K, 10000 kPa, m1 = 0.239	0.67	–
353.3 K, 30000 kPa, m1 = 0.239	0.679	–
363 K, 100 kPa, m1 = 0.499	0.666	–
363 K, 10000 kPa, m1 = 0.499	0.671	–
363 K, 30000 kPa, m1 = 0.499	0.68	–
363.4 K, 100 kPa, m1 = 0.239	0.67	–
363.4 K, 100 kPa, m1 = 0.782	0.66	–
363.4 K, 10000 kPa, m1 = 0.239	0.675	–
363.4 K, 10000 kPa, m1 = 0.782	0.665	–
363.4 K, 30000 kPa, m1 = 0.239	0.685	–
363.4 K, 30000 kPa, m1 = 0.782	0.675	–
365.45 K, 10 kPa, m1 = 0.2055	–	0.3303
365.45 K, 20 kPa, m1 = 0.2055	–	0.3339
365.45 K, 30 kPa, m1 = 0.2055	–	0.3363
365.95 K, 10 kPa, m1 = 0.305	–	0.3396
365.95 K, 20 kPa, m1 = 0.305	–	0.3421
365.95 K, 30 kPa, m1 = 0.305	–	0.346
372.55 K, 10 kPa, m1 = 0.407	–	0.3265
372.55 K, 20 kPa, m1 = 0.407	–	0.33
372.55 K, 30 kPa, m1 = 0.407	–	0.3329
376.65 K, 10 kPa, m1 = 0.0658	–	0.2805
376.65 K, 20 kPa, m1 = 0.0658	–	0.2846
376.65 K, 30 kPa, m1 = 0.0658	–	0.2884
393.1 K, 10000 kPa, m1 = 0.499	0.679	–
393.1 K, 10000 kPa, m1 = 0.782	0.672	–
393.1 K, 30000 kPa, m1 = 0.499	0.69	–
393.1 K, 30000 kPa, m1 = 0.782	0.685	–
393.5 K, 10000 kPa, m1 = 0.239	0.684	–
393.5 K, 30000 kPa, m1 = 0.239	0.695	–
396.35 K, 10 kPa, m1 = 0.407	–	0.2605
396.35 K, 20 kPa, m1 = 0.407	–	0.2628
396.35 K, 30 kPa, m1 = 0.407	–	0.2667
396.65 K, 10 kPa, m1 = 0.2055	–	0.2435
396.65 K, 20 kPa, m1 = 0.2055	–	0.2464
396.65 K, 30 kPa, m1 = 0.2055	–	0.2492
397.25 K, 10 kPa, m1 = 0.305	–	0.2503

Reference: the NIST ThermoML archive (doi:10.1007/s10765-005-5567-5)
